In ChEMBL document CHEMBL1201862, “PubChem BioAssay data set” (2004):
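In this assay, cells in 96-well plates receive the compound at five concentrations for 48 hours. Endpoints are linearly interpolated between the surrounding concentrations. GI50 = concentration required for 50% inhibition of growth.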 Active and inactive are the calls of the source. Cut-off read from the data, not from the text of the source: active = GI50 up to about 1.1 µM and inactive = higher.

How the values were obtained:
Assay in all cases: inhibition of tumour cell growth, NCI panel, 48 h
[1] = tested on: SK-OV-3
[2] = tested on: HCT-116
[3] = tested on: KM12
[4] = tested on: SNB-75
[5] = tested on: K562
[6] = tested on: OVCAR-8
[7] = tested on: T47D
[8] = tested on: UACC-62
[9] = tested on: SNB-19
[10] = tested on: SW-620
[11] = tested on: OVCAR-4
[12] = tested on: ACHN
[13] = tested on: HT-29
[14] = tested on: NCI-H460
[15] = tested on: HOP-62
[16] = tested on: COLO 205
[17] = tested on: A549
[18] = tested on: MDA-N
[19] = tested on: HCC 2998
[20] = tested on: NCI/ADR-RES

Compound	GI50 [1]	GI50 [2]	GI50 [3]	GI50 [4]	GI50 [5]	GI50 [6]	GI50 [7]	GI50 [8]	GI50 [9]	GI50 [10]	GI50 [11]	GI50 [12]	GI50 [13]	GI50 [14]	GI50 [15]	GI50 [16]	GI50 [17]	GI50 [18]	GI50 [19]	GI50 [20]
Cc1ccc2nc3ccccc3c(C3C4C(=O)N(c5ccc(Br)cc5Cl)C(=O)C4ON3C(C(N)=O)c3ccccc3)c2c1 (stereo unspecified)	> 25 µM (inactive)	13.7 µM (inactive)	> 25 µM (inactive)	> 25 µM (inactive)	> 25 µM (inactive)	> 25 µM (inactive)	> 25 µM (inactive)	7.93 µM (inactive)	> 25 µM (inactive)	> 25 µM (inactive)	19.7 µM (inactive)	6.73 µM (inactive)	11.2 µM (inactive)	> 25 µM (inactive)	> 25 µM (inactive)	> 25 µM (inactive)	> 25 µM (inactive)	6.9 µM (inactive)		
Cc1c(CCCl)c(Cl)n2c(nc3ccccc32)c1C#N	4.9 µM (inactive)	0.229 µM (active)	1.19 µM (inactive)	3.38 µM (inactive)	0.321 µM (active)	1.25 µM (inactive)	1.38 µM (inactive)	1.02 µM (active)	1.89 µM (inactive)	0.161 µM (active)	1.44 µM (inactive)	0.836 µM (active)	1.42 µM (inactive)	0.456 µM (active)	2 µM (inactive)	0.991 µM (active)	1.4 µM (inactive)	0.826 µM (active)	1.56 µM (inactive)	
O=C(O)CNc1ncc2c(n1)-c1ccccc1OC2	> 100 µM (inactive)	> 100 µM (inactive)	> 100 µM (inactive)	> 100 µM (inactive)	> 100 µM (inactive)	> 100 µM (inactive)		> 100 µM (inactive)	> 100 µM (inactive)	> 100 µM (inactive)	> 100 µM (inactive)	> 100 µM (inactive)	> 100 µM (inactive)	> 100 µM (inactive)	> 100 µM (inactive)	> 100 µM (inactive)	> 100 µM (inactive)	> 100 µM (inactive)		> 100 µM (inactive)
O=C1C=Cc2c1csc2Br	> 100 µM (inactive)	43.3 µM (inactive)	50.8 µM (inactive)	> 100 µM (inactive)	26.5 µM (inactive)	38.2 µM (inactive)	54.5 µM (inactive)	35.3 µM (inactive)	70.3 µM (inactive)	22.3 µM (inactive)	70.8 µM (inactive)	30.7 µM (inactive)	96.8 µM (inactive)	> 100 µM (inactive)	> 100 µM (inactive)	64.7 µM (inactive)	41.5 µM (inactive)	50 µM (inactive)		33.8 µM (inactive)
COc1ccc(/C=C/c2nsc(/C=C/c3ccc(OC)cc3)n2)cc1	> 100 µM (inactive)	> 100 µM (inactive)	> 100 µM (inactive)	> 100 µM (inactive)	33.3 µM (inactive)	> 100 µM (inactive)	38 µM (inactive)		> 100 µM (inactive)		> 100 µM (inactive)	> 100 µM (inactive)	36.5 µM (inactive)	24.9 µM (inactive)	> 100 µM (inactive)	> 100 µM (inactive)	> 100 µM (inactive)	> 100 µM (inactive)		> 100 µM (inactive)
S=c1cc(-c2ccc3c(c2)OCO3)s[nH]1	> 100 µM (inactive)	> 100 µM (inactive)	> 100 µM (inactive)	48.4 µM (inactive)	> 100 µM (inactive)	> 100 µM (inactive)	89.7 µM (inactive)	83.2 µM (inactive)	> 100 µM (inactive)	> 100 µM (inactive)	> 100 µM (inactive)	> 100 µM (inactive)	> 100 µM (inactive)	> 100 µM (inactive)	> 100 µM (inactive)	> 100 µM (inactive)	> 100 µM (inactive)	> 100 µM (inactive)		> 100 µM (inactive)
Nc1ccc(Oc2ccc(C34CC5CC6C3CC3CC4C(C5)C6(c4ccc(Oc5ccc(N)cc5)cc4)C3)cc2)cc1	22.8 µM (inactive)	8.41 µM (inactive)	19.5 µM (inactive)		10.2 µM (inactive)	31.9 µM (inactive)	9.14 µM (inactive)	2.74 µM (inactive)	9.53 µM (inactive)	19.7 µM (inactive)	11.1 µM (inactive)	3.17 µM (inactive)	10.2 µM (inactive)	21.4 µM (inactive)	18.3 µM (inactive)	< 0.01 µM (active)	12.6 µM (inactive)	0.334 µM (active)	18 µM (inactive)	> 74.6 µM (inactive)
CCN1C(Cl)=NS(=O)(=O)c2ccccc21	71.6 µM (inactive)	23.8 µM (inactive)	51.8 µM (inactive)		7.83 µM (inactive)	28.3 µM (inactive)	30 µM (inactive)	9.06 µM (inactive)	35.5 µM (inactive)	28.1 µM (inactive)	19.4 µM (inactive)	16.5 µM (inactive)	18.8 µM (inactive)	22.8 µM (inactive)	25.2 µM (inactive)	14.9 µM (inactive)	> 100 µM (inactive)	29.1 µM (inactive)	20.3 µM (inactive)	26.5 µM (inactive)
CCOC(=O)c1cc(I)c(-c2cc(C)no2)n1C	> 100 µM (inactive)	40.4 µM (inactive)	21.1 µM (inactive)	49.8 µM (inactive)	26.8 µM (inactive)	59 µM (inactive)	32.2 µM (inactive)	59 µM (inactive)	> 100 µM (inactive)	60.7 µM (inactive)	21.8 µM (inactive)	48.3 µM (inactive)	74.1 µM (inactive)	76.7 µM (inactive)		42.4 µM (inactive)	61.7 µM (inactive)	43.9 µM (inactive)		36.2 µM (inactive)
CO[P@]1(=O)O[C@@H](c2ccccc2)[C@H](O)[C@@]1(O)c1ccccc1	> 100 µM (inactive)	> 100 µM (inactive)	> 100 µM (inactive)	> 100 µM (inactive)	> 100 µM (inactive)	> 100 µM (inactive)	> 100 µM (inactive)	> 100 µM (inactive)	> 100 µM (inactive)	> 100 µM (inactive)	> 100 µM (inactive)	> 100 µM (inactive)	> 100 µM (inactive)	> 100 µM (inactive)		> 100 µM (inactive)	> 100 µM (inactive)	> 100 µM (inactive)		> 100 µM (inactive)
C[C@@H]1CC[C@@H](C)[C@](C)(CCc2ccoc2)C/C=C\C=C/1C(=O)O	> 50 µM (inactive)	> 50 µM (inactive)	> 50 µM (inactive)	> 50 µM (inactive)	> 50 µM (inactive)	> 50 µM (inactive)		> 50 µM (inactive)	> 50 µM (inactive)	> 50 µM (inactive)	> 50 µM (inactive)	> 50 µM (inactive)	> 50 µM (inactive)	> 50 µM (inactive)	> 50 µM (inactive)	> 50 µM (inactive)	> 50 µM (inactive)	> 50 µM (inactive)	> 50 µM (inactive)	> 50 µM (inactive)
CC1(C)O[C@@H]([C@@H](O)[C@H](O)C2SCCCS2)[C@@H](CO)O1	> 100 µM (inactive)	> 100 µM (inactive)	> 100 µM (inactive)	> 100 µM (inactive)	> 100 µM (inactive)	> 100 µM (inactive)	> 100 µM (inactive)	> 100 µM (inactive)	> 100 µM (inactive)	> 100 µM (inactive)		> 100 µM (inactive)	> 100 µM (inactive)	> 100 µM (inactive)	> 100 µM (inactive)	> 100 µM (inactive)	> 100 µM (inactive)	> 100 µM (inactive)		> 100 µM (inactive)
Cc1cc(C)n2c(nc3ccccc32)c1C#N	> 100 µM (inactive)	54.1 µM (inactive)			> 100 µM (inactive)	> 100 µM (inactive)	> 100 µM (inactive)	> 100 µM (inactive)	> 100 µM (inactive)	> 100 µM (inactive)	10.8 µM (inactive)	> 100 µM (inactive)	> 100 µM (inactive)	> 10 µM (inactive)		> 100 µM (inactive)	> 100 µM (inactive)	> 100 µM (inactive)	> 100 µM (inactive)	> 100 µM (inactive)
Cc1ccc2c(c1)-c1c(C#N)c(N)nc(-c3ccccc3)c1CCS2(=O)=O	5.53 µM (inactive)	6.38 µM (inactive)	4.85 µM (inactive)	3.72 µM (inactive)	1.97 µM (inactive)	11.7 µM (inactive)	15.1 µM (inactive)	3.84 µM (inactive)	4.16 µM (inactive)	5.6 µM (inactive)	52 µM (inactive)	8.53 µM (inactive)	3.78 µM (inactive)	4.17 µM (inactive)	6.95 µM (inactive)	6.03 µM (inactive)	11 µM (inactive)		8.13 µM (inactive)	5.26 µM (inactive)
CSCCCNC(=O)c1csc(-c2csc(CCNC(=O)CNC(=O)OC(C)(C)C)n2)n1	> 100 µM (inactive)	> 100 µM (inactive)	> 100 µM (inactive)	> 100 µM (inactive)	> 100 µM (inactive)	> 100 µM (inactive)		28.6 µM (inactive)	> 100 µM (inactive)	> 100 µM (inactive)	> 100 µM (inactive)	> 100 µM (inactive)	> 100 µM (inactive)	> 100 µM (inactive)	> 100 µM (inactive)	> 100 µM (inactive)	> 100 µM (inactive)	> 100 µM (inactive)	> 100 µM (inactive)	> 100 µM (inactive)
